Source: US10085448B2, “Azoline compounds substituted by a carbocyclic condensed ring system” (BASF SE, priority 2014, dated 2018)
Read-outs that look alike come from different tables or passages of the source.

Legend:
Assay type in all cases: in vivo
[1] = test system: Green Peach Aphid (Myzus persicae); assay: Green peach aphid systemic artificial diet test; conditions: 72 h, read-out: mortality in comparison with untreated controls
Source text: B.2 Green Peach Aphid (Myzus persicae)
For evaluating control of green peach aphid (Myzus persicae) through systemic means the test unit consisted of 96-well-microtiter plates containing liquid artificial diet under an artificial membrane.
The compounds were formulated using a solution containing 75% v/v water and 25% v/v DMSO. Different concentrations of formulated compounds were pipetted into the aphid diet, using a custom built pipetter, at two replications.
After application, 5-8 adult aphids were placed on the artificial membrane inside the microtiter plate wells. The aphids were then allowed to suck on the treated aphid diet and incubated at about 23±1° C. and about 50±5% relative humidity for 3 days. Aphid mortality and fecundity was then visually assessed.

[2] = test system: Diamond Back Moth (Plutella xylostella); assay: Diamond back moth leaf-dip test; conditions: read-out: mortality in comparison with untreated controls
Protocol: B.1 Diamond Back Moth (Plutella xylostella)
The active compound was dissolved at the desired concentration in a mixture of 1:1 (vol:vol) distilled water: aceteone. Surfactant (Kinetic HV) was added at a rate of 0.01% (vol/vol).The test solution was prepared at the day of use.
Leaves of cabbage were dipped in test solution and air-dried. Treated leaves were placed in petri dishes lined with moist filter paper and inoculated with ten 3rd instar larvae. Mortality was recorded 72 hours after treatment. Feeding damages were also recorded using a scale of 0-100%.

[3] = test system: Boll Weevil (Anthonomus grandis); assay: Boll weevil insect diet test; conditions: 120 h, read-out: mortality in comparison with untreated controls
Protocol: B.5 Boll Weevil (Anthonomus grandis)
For evaluating control of boll weevil (Anthonomus grandis) the test unit consisted of 96-well-microtiter plates containing an insect diet and 5-10 A. grandis eggs.
(§1) The compounds were formulated using a solution containing 75% v/v water and 25% v/v DMSO. Different concentrations of formulated compounds were sprayed onto the insect diet at 5 μl, using a custom built micro atomizer, at two replications.
After application, microtiter plates were incubated at about 25±1° C. and about 75±5% relative humidity for 5 days. Egg and larval mortality was then visually assessed.

[4] = test system: Vetch Aphid (Megoura viciae); assay: Vetch aphid leaf disk test; conditions: foliar, 120 h, read-out: mortality in comparison with untreated controls
Protocol: B.3 Vetch Aphid (Megoura viciae)
For evaluating control of vetch aphid (Megoura viciae) through contact or systemic means the test unit consisted of 24-well-microtiter plates containing broad bean leaf disks.
The compounds were formulated using a solution containing 75% v/v water and 25% v/v DMSO. Different concentrations of formulated compounds were sprayed onto the leaf disks at 2.5 μl, using a custom built micro atomizer, at two replications.
After application, the leaf disks were air-dried and 5-8 adult aphids placed on the leaf disks inside the microtiter plate wells. The aphids were then allowed to suck on the treated leaf disks and incubated at about 23±1° C. and about 50±5% relative humidity for 5 days. Aphid mortality and fecundity was then visually assessed.

[5] = test system: Tobacco Budworm (Heliothis virescens); assay: Tobacco budworm insect diet test; conditions: 120 h, read-out: mortality in comparison with untreated controls
Protocol: B.4 Tobacco Budworm (Heliothis virescens)
For evaluating control of tobacco budworm (Heliothis virescens) the test unit consisted of 96-well-microtiter plates containing an insect diet and 15-25 H. virescens eggs.
The compounds were formulated using a solution containing 75% v/v water and 25% v/v DMSO. Different concentrations of formulated compounds were sprayed onto the insect diet at 10 μl, using a custom built micro atomizer, at two replications.
(§2) After application, microtiter plates were incubated at about 28±1° C. and about 80±5% relative humidity for 5 days. Egg and larval mortality was then visually assessed.

[6] = test system: Mediterranean Fruitfly (Ceratitis capitata); assay: Mediterranean fruitfly insect diet test; conditions: 120 h, read-out: mortality in comparison with untreated controls
Protocol: B.6 Mediterranean Fruitfly (Ceratitis capitata)
as §1, with “For evaluating control of Mediterranean fruitfly (Ceratitis capitata) the test unit consisted of microtiter plates containing an insect diet and 50-80 C. capitata eggs. The” for “The”
as §2

[7] = test system: Southern Armyworm (Spodoptera eridania); assay: Southern armyworm sprayed lima bean test; conditions: 96 h, read-out: mortality in comparison with untreated controls
Protocol: B.10 Southern Armyworm (Spodoptera eridania)
The active compounds were formulated in cyclohexanone as a 10,000 ppm solution supplied in tubes. The tubes were inserted into an automated electrostatic sprayer equipped with an atomizing nozzle and they served as stock solutions for which lower dilutions were made in 50% acetone:50% water (v/v). A nonionic surfactant (Kinetic®) was included in the solution at a volume of 0.01% (v/v).
Lima bean plants (variety Sieva) were grown 2 plants to a pot and selected for treatment at the 1st true leaf stage. Test solutions were sprayed onto the foliage by an automated electrostatic plant sprayer equipped with an atomizing spray nozzle. The plants were dried in the sprayer fume hood and then removed from the sprayer. Each pot was placed into perforated plastic bags with a zip closure. About 10 to 11 armyworm larvae were placed into the bag and the bags zipped closed. Test plants were maintained in a growth room at about 25° C. and about 20-40% relative humidity for 4 days, avoiding direct exposure to fluorescent light (24 hour photoperiod) to prevent trapping of heat inside the bags. Mortality and reduced feeding were assessed 4 days after treatment, compared to untreated control plants.

[8] = test system: Orchid Thrips (Dichromothrips corbetti); assay: Orchid thrips floral-immersion test; conditions: 72 h, read-out: mortality in comparison with untreated controls
Protocol: B.7 Orchid Thrips (Dichromothrips corbetti)
Dichromothrips corbetti adults used for bioassay were obtained from a colony maintained continuously under laboratory conditions. For testing purposes, the test compound is diluted in a 1:1 mixture of acetone:water (vol:vol), plus Kinetic HV at a rate of 0.01% v/v.
Thrips potency of each compound was evaluated by using a floral-immersion technique. All petals of individual, intact orchid flowers were dipped into treatment solution and allowed to dry in Petri dishes. Treated petals were placed into individual re-sealable plastic along with about 20 adult thrips. All test arenas were held under continuous light and a temperature of about 28° C. for duration of the assay. After 3 days, the numbers of live thrips were counted on each petal. The percent mortality was recorded 72 hours after treatment.

[9] = test system: Rice Green Leafhopper (Nephotettix virescens); assay: Rice green leafhopper sprayed rice seedling test; conditions: 72 h, read-out: mortality in comparison with untreated controls
Protocol: B.8 Rice Green Leafhopper (Nephotettix virescens)
Rice seedlings were cleaned and washed 24 hours before spraying. The active compounds were formulated in 1:1 acetone:water (vol:vol), and 0.01% vol/vol surfactant (Kinetic HV) was added. Potted rice seedlings were sprayed with 5-6 ml test solution, air dried, covered with Mylar cages and inoculated with 10 adults. Treated rice plants were kept at about 28-29° C. and relative humidity of about 50-60%. Percent mortality was recorded after 72 hours.

[10] = test system: Neotropical Brown Stink Bug (Euschistus heros); assay: Neotropical brown stink bug soybean pod spray test; conditions: 120 h, adults on soybean pods, sprayed, after 5 days, read-out: mortality in comparison with untreated controls
Protocol: B.12 Neotropical Brown Stink Bug (Euschistus heros)
(§3) The active compound was dissolved at the desired concentration in a mixture of 1:1 (vol:vol) distilled water: acetone. Surfactant (Kinetic HV) was added at a rate of 0.01% (vol/vol).The test solution was prepared at the day of use.
Soybean pods were placed in microwavable plastic cups and inoculated with ten adult stage E. heros. Using a hand atomizer, approximately 1 ml solution is sprayed into each cup, insects and food present. A water source was provided (cotton wick with water). Each treatment was replicated 2-fold. Assay arenas were kept at about 25° C. Percent mortality was recorded after 5 days.

[11] = test system: Green Soldier Stink Bug (Nezara viridula); assay: Green soldier stink bug soybean pod spray test; conditions: 120 h, read-out: mortality in comparison with untreated controls
Protocol: B.11 Green Soldier Stink Bug (Nezara viridula)
as §3
Soybean pods were placed in glass Petri dishes lined with moist filter paper and inoculated with ten late 3rd instar N. viridula. Using a hand atomizer, approximately 2 ml solution is sprayed into each Petri dish. Assay arenas were kept at about 25° C. Percent mortality was recorded after 5 days.

[12] = test system: Red Spider Mite (Tetranychus kanzawai); assay: Red spider mite sprayed cowpea bean test; conditions: 72 h, read-out: mortality in comparison with untreated controls
Protocol: B.9 Red Spider Mite (Tetranychus kanzawai)
The active compound was dissolved at the desired concentration in a mixture of 1:1 (vol:vol) distilled water: acetone. Add surfactant (Kinetic HV) was added at a rate of 0.01% (vol/vol).The test solution was prepared at the day of use.
Potted cowpea beans of 4-5 days of age were cleaned with tap water and sprayed with 1-2 ml of the test solution using air driven hand atomizer. The treated plants were allowed to air dry and afterwards inoculated with 30 or more mites by clipping a cassava leaf section from rearing population. Treated plants were placed inside a holding room at about 25-27° C. and about 50-60% relative humidity. Percent mortality was assessed 72 hours after treatment.

[13] = 2500 ppm, egg and larval mortality on sprayed insect diet, 5 days

O=C(NCC(F)(F)F)N/N=C/c1ccc(C2=NCC(c3cc(Cl)cc(Cl)c3)(C(F)(F)F)C2)c2c1CCC2 (stereo not drawn) [Compound 3-1, 1-[(E)-[7-[3-(3,5-Dichlorophenyl)-3-(trifluoromethyl)-2,4-dihydropyrrol-5-yl]indan-4-yl]methyleneamino]-3-(2,2,2-trifluoroethyl)urea]
≥ 75%: mortality at 2500 ppm ([1]; 2500 ppm, adult aphids on treated artificial diet, 3 days) | mortality at 300 ppm ([2]; 300 ppm, cabbage leaves dipped, 3rd instar larvae, 72 hours after treatment) | mortality at 2500 ppm [3, 13] | mortality at 2500 ppm ([4]; 2500 ppm, adult aphids on sprayed broad bean leaf disks, 5 days) | mortality at 2500 ppm [5, 13] | mortality at 2500 ppm [6, 13] | mortality at 10 ppm ([7]; 10 ppm, larvae on sprayed lima bean plants, 4 days after treatment)

CC(=O)NCc1ccc(C2=NOC(c3cc(Cl)c(F)c(Cl)c3)(C(F)(F)F)C2)c2c1CCC2 (stereo not drawn) [Compound 1-4, N-[[7-[5-(3,5-Dichloro-4-fluoro-phenyl)-5-(trifluoromethyl)-4H-isoxazol-3-yl]indan-4-yl]methyl]acetamide]
≥ 75%: mortality at 2500 ppm [1] | mortality at 300 ppm [8] | mortality at 300 ppm [9] | mortality at 300 ppm ([2]; in Brassica oleracea, 72 h) | mortality at 2500 ppm [3] | mortality at 2500 ppm [4] | mortality at 100 ppm [10] | mortality at 2500 ppm [5] | mortality at 2500 ppm [6] | mortality at 10 ppm [7] | mortality at 300 ppm [11] | mortality at 300 ppm [12]

O=C(NCC(F)(F)F)N/N=C/c1ccc(C2=NOC(c3cc(Cl)c(F)c(Cl)c3)(C(F)(F)F)C2)c2c1CCC2 (stereo not drawn) [Compound 2-3, 1-[(E)-[7-[5-(3,5-Dichloro-4-fluoro-phenyl)-5-(trifluoromethyl)-4H-isoxazol-3-yl]indan-4-yl]methyleneamino]-3-(2,2,2-trifluoroethyl)urea]
≥ 75%: mortality at 2500 ppm [1] | mortality at 300 ppm [8] | mortality at 300 ppm ([2]; in Brassica oleracea, 72 h) | mortality at 2500 ppm [3] | mortality at 2500 ppm [4] | mortality at 2500 ppm [5] | mortality at 2500 ppm [6] | mortality at 300 ppm [12]

Fc1c(Cl)cc(C2(C(F)(F)F)CC(c3ccc(-n4cncn4)c4c3CCC4)=NO2)cc1Cl (stereo not drawn) [Compound 4-1, 5-(3,5-Dichloro-4-fluoro-phenyl)-3-[7-(1,2,4-triazol-1-yl)indan-4-yl]-5-(trifluoromethyl)-4H-isoxazole]
≥ 75%: mortality at 300 ppm [8] | mortality at 300 ppm [9] | mortality at 300 ppm ([2]; in Brassica oleracea, 72 h)
